Experimental data reported in ChEMBL document CHEMBL5608141, “Identification of compartment-specific drug sensitivities in CRC organoid-stroma co-cultures” (2024).

How the values were obtained:
Assay type in all cases: functional, Homo sapiens
Parameters in all cases: dose or concentration left out as unconfirmed
[1] = test system: Colon cancer organoid; experiment: Identification of compartment-specific drug sensitivities in O14 CRC organoid-stroma F14 CAF co-cultures. Organoid is transduced with Lucferase2-P2A-EGFP lentivirus, fibroblast with Renilla-dsRed lentivirus. Dual-Glo Luciferase assay is used to report viability data.
[2] = test system: Colon cancer organoid; experiment: Identification of compartment-specific drug sensitivities in O20 CRC organoid-stroma F20 CAF co-cultures. Organoid is transduced with Lucferase2-P2A-EGFP lentivirus, fibroblast with Renilla-dsRed lentivirus. Dual-Glo Luciferase assay is used to report viability data.
[3] = test system: Colon cancer organoid; experiment: Identification of compartment-specific drug sensitivities in O06 CRC organoid-stroma F06 CAF co-cultures. Organoid is transduced with Lucferase2-P2A-EGFP lentivirus, fibroblast with Renilla-dsRed lentivirus. Dual-Glo Luciferase assay is used to report viability data.
[4] = Transduced with Lucferase2-P2A-EGFP lentivirus
[5] = Transduced with Renilla-dsRed lentivirus

O=C(c1ccc(F)c(F)c1Nc1ccc(I)cc1F)N1CC(O)([C@@H]2CCCCN2)C1 [COBIMETINIB]
Cell Viability [1, 4]: 13.8076%
Cell Viability [1, 5]: 23.8651%
Cell Viability [2, 4]: 4.065%
Cell Viability [2, 5]: 77.761%
Cell Viability [3, 4]: 5.143%
Cell Viability [3, 5]: 42.4292%

COc1c(OCCCN2CCOCC2)ccc2c1N=C(NC(=O)c1cnc(N)nc1)N1CCN=C21 [COPANLISIB]
Cell Viability [1, 4]: 8.823%
Cell Viability [1, 5]: 38.6713%
Cell Viability [2, 4]: 2.299%
Cell Viability [2, 5]: 117.524%
Cell Viability [3, 4]: 1.487%
Cell Viability [3, 5]: 40.0213%

COCC(=O)NC/C=C/c1ccc2ncnc(Nc3ccc(Oc4ccc(C)nc4)c(C)c3)c2c1 [CP-724714]
Cell Viability [1, 4]: 105.334%
Cell Viability [1, 5]: 107.19%
Cell Viability [2, 4]: 97.2693%
Cell Viability [2, 5]: 94.0282%
Cell Viability [3, 4]: 64.178%
Cell Viability [3, 5]: 58.1065%

CN([C@@H]1CCc2c(CC(=O)O)c3cc(S(C)(=O)=O)ccc3n2C1)S(=O)(=O)c1ccc(F)cc1 [CRTH2-negative-control]
Cell Viability [1, 4]: 107.65%
Cell Viability [1, 5]: 94.275%
Cell Viability [2, 4]: 107.561%
Cell Viability [2, 5]: 126.69%
Cell Viability [3, 4]: 78.3965%
Cell Viability [3, 5]: 74.5251%

CNC(=O)c1ccc(Nc2ncc(C(F)(F)F)c(NCc3nccnc3N(C)S(C)(=O)=O)n2)cc1 [DEFACTINIB]
Cell Viability [1, 4]: 78.9872%
Cell Viability [1, 5]: 82.2867%
Cell Viability [2, 4]: 57.0475%
Cell Viability [2, 5]: 79.7534%
Cell Viability [3, 4]: 119.668%
Cell Viability [3, 5]: 427.019%

CCN(CCO)CCCOc1ccc2c(Nc3cc(CC(=O)Nc4cccc(F)c4)[nH]n3)ncnc2c1 [DEFOSBARASERTIB]
Cell Viability [1, 4]: 12.9014%
Cell Viability [1, 5]: 101.396%
Cell Viability [2, 4]: 5.365%
Cell Viability [2, 5]: 225.013%
Cell Viability [3, 4]: 9.138%
Cell Viability [3, 5]: 166.163%

Cn1c(C2(NC(=O)c3ccc4c(C5CCCC5)c(-c5ncc(Br)cn5)n(C)c4c3)CCC2)nc2ccc(/C=C/C(=O)O)cc21 [DELEOBUVIR]
Cell Viability [1, 4]: 99.2157%
Cell Viability [1, 5]: 60.0807%
Cell Viability [2, 4]: 79.9036%
Cell Viability [2, 5]: 130.288%
Cell Viability [3, 4]: 117.892%
Cell Viability [3, 5]: 131.89%

CN1CCN(Cc2ccc(Nc3ncc(Cl)c(Nc4ccccc4S(=O)(=O)N(C)C)n3)cc2)CC1 [DUBERMATINIB]
Cell Viability [1, 4]: 1%
Cell Viability [1, 5]: 1.414%
Cell Viability [2, 4]: 1.051%
Cell Viability [2, 5]: 16.1981%
Cell Viability [3, 4]: 0.5937%
Cell Viability [3, 5]: 0.7151%

Cn1cc(C2=C(c3cn(C4CCN(Cc5ccccn5)CC4)c4ccccc34)C(=O)NC2=O)c2ccccc21 [ENZASTAURIN]
Cell Viability [1, 4]: 80.1065%
Cell Viability [1, 5]: 85.9175%
Cell Viability [2, 4]: 54.6044%
Cell Viability [2, 5]: 78.6109%
Cell Viability [3, 4]: 65.6638%
Cell Viability [3, 5]: 92.7001%

C[C@H](NC(=O)Nc1cc2[nH]ncc2c(CO)n1)c1ccccn1 [ERKi-NC]
Cell Viability [1, 4]: 81.1185%
Cell Viability [1, 5]: 100.943%
Cell Viability [2, 4]: 108.541%
Cell Viability [2, 5]: 124.126%
Cell Viability [3, 4]: 94.8975%
Cell Viability [3, 5]: 86.1568%

C[C@@H](NC(=O)Nc1cc2[nH]ncc2c(CO)n1)c1ccccc1 [ERKi]
Cell Viability [1, 4]: 56.1161%
Cell Viability [1, 5]: 76.4372%
Cell Viability [2, 4]: 50.0756%
Cell Viability [2, 5]: 135.339%
Cell Viability [3, 4]: 82.7933%
Cell Viability [3, 5]: 113.572%

O=C(Nc1nc2cccc(-c3ccc(CN4CCS(=O)(=O)CC4)cc3)n2n1)C1CC1 [FILGOTINIB]
Cell Viability [1, 4]: 113.804%
Cell Viability [1, 5]: 94.0881%
Cell Viability [2, 4]: 113.419%
Cell Viability [2, 5]: 86.0918%
Cell Viability [3, 4]: 100.525%
Cell Viability [3, 5]: 92.8016%

CN(C(=O)c1ccccc1)c1cc(N(C)c2ccc3c(c2)CCc2ccc(C(=O)NCCN4CCOCC4)cc2C3=O)ccc1F [FM-743]
Cell Viability [1, 4]: 122.056%
Cell Viability [1, 5]: 99.7372%
Cell Viability [2, 4]: 87.6379%
Cell Viability [2, 5]: 153.202%
Cell Viability [3, 4]: 67.0526%
Cell Viability [3, 5]: 69.6878%

O=C(NCCN1CCOCC1)c1ccc2c(c1)C(=O)c1ccc(Nc3ccc(F)c(NC(=O)c4ccccc4)c3)cc1CC2 [FS-694]
Cell Viability [1, 4]: 121.73%
Cell Viability [1, 5]: 92.4198%
Cell Viability [2, 4]: 66.3241%
Cell Viability [2, 5]: 119.038%
Cell Viability [3, 4]: 67.8661%
Cell Viability [3, 5]: 67.282%

CC(C)(C)OC(=O)N1CCCC1CNC1CCC(c2cc(F)ccc2F)(S(=O)(=O)c2ccc(Cl)cc2)CC1 (stereo not given) [GSI-NC]
Cell Viability [1, 4]: 112.017%
Cell Viability [1, 5]: 95.5535%
Cell Viability [2, 4]: 93.8933%
Cell Viability [2, 5]: 100.789%
Cell Viability [3, 4]: 96.8575%
Cell Viability [3, 5]: 78.4593%
